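Results reflect a 48-hour exposure of cells in 96-well plates to compound at five concentrations. GI50 marks 50% less growth. At the TGI there is no net growth.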
Legend:
Test in all cases: growth of human tumour cells (NCI), 48 h
UO-31 renal = system: UO-31 renal
SF-539 CNS = system: SF-539 CNS
OVCAR-3 ovarian = system: OVCAR-3 ovarian
SNB-19 CNS = system: SNB-19 CNS
RPMI-8226 leukemia = system: RPMI-8226 leukemia
MDA-MB-435 = system: MDA-MB-435
OVCAR-8 ovarian = system: OVCAR-8 ovarian
CCRF-CEM leukemia = system: CCRF-CEM leukemia
MOLT-4 leukemia = system: MOLT-4 leukemia
MDA-MB-231 breast = system: MDA-MB-231 breast
HOP-92 NSCLC = system: HOP-92 NSCLC
MCF7 breast = system: MCF7 breast
DU-145 prostate = system: DU-145 prostate
OVCAR-5 ovarian = system: OVCAR-5 ovarian
COLO 205 colon = system: COLO 205 colon
EKVX NSCLC = system: EKVX NSCLC
SN12C renal = system: SN12C renal
HCT-116 colon = system: HCT-116 colon
M14 melanoma = system: M14 melanoma
MALME-3M melanoma = system: MALME-3M melanoma
KM12 colon = system: KM12 colon
UACC-62 melanoma = system: UACC-62 melanoma
HOP-62 NSCLC = system: HOP-62 NSCLC
SK-MEL-5 melanoma = system: SK-MEL-5 melanoma
SK-MEL-2 melanoma = system: SK-MEL-2 melanoma
SF-268 CNS = system: SF-268 CNS
A549 NSCLC = system: A549 NSCLC
IGROV1 ovarian = system: IGROV1 ovarian
SK-MEL-28 melanoma = system: SK-MEL-28 melanoma
HT29 colon = system: HT29 colon
NCI-H460 lung = system: NCI-H460 lung
UACC-257 melanoma = system: UACC-257 melanoma
BT-549 breast = system: BT-549 breast
A498 renal = system: A498 renal
T-47D breast = system: T-47D breast
LOX IMVI melanoma = system: LOX IMVI melanoma
NCI-H23 lung = system: NCI-H23 lung
SR leukemia = system: SR leukemia
ACHN renal = system: ACHN renal
HL-60(TB) leukemia = system: HL-60(TB) leukemia
U251 CNS = system: U251 CNS
RXF 393 renal = system: RXF 393 renal
NCI/ADR-RES ovarian = system: NCI/ADR-RES ovarian
HCT-15 colon = system: HCT-15 colon
CAKI-1 renal = system: CAKI-1 renal
NCI-H226 lung = system: NCI-H226 lung
PC-3 prostate = system: PC-3 prostate
786-0 renal = system: 786-0 renal
NCI-H522 lung = system: NCI-H522 lung
SW-620 colon = system: SW-620 colon
K-562 leukemia = system: K-562 leukemia
HS 578T breast = system: HS 578T breast
SNB-75 CNS = system: SNB-75 CNS
OVCAR-4 ovarian = system: OVCAR-4 ovarian
MDA-N = system: MDA-N
SF-295 CNS = system: SF-295 CNS
TK-10 renal = system: TK-10 renal
SK-OV-3 ovarian = system: SK-OV-3 ovarian
HCC-2998 colon = system: HCC-2998 colon

## CC(C(=O)O)c1ccc(-c2ccccc2)c(F)c1 (stereo not drawn)
UO-31 renal
  TGI: > 100 µM
SF-539 CNS
  TGI: > 100 µM
OVCAR-3 ovarian
  TGI: > 100 µM
SNB-19 CNS
  TGI: > 100 µM
RPMI-8226 leukemia
  TGI: > 100 µM
MDA-MB-435
  TGI: > 100 µM
OVCAR-8 ovarian
  TGI: > 100 µM
CCRF-CEM leukemia
  TGI: > 100 µM
MOLT-4 leukemia
  TGI: > 100 µM
MDA-MB-231 breast
  TGI: > 100 µM
HOP-92 NSCLC
  GI50: 47.6 µM
  TGI: > 100 µM
MCF7 breast
  TGI: > 100 µM
DU-145 prostate
  TGI: > 100 µM
OVCAR-5 ovarian
  TGI: > 100 µM
COLO 205 colon
  TGI: > 100 µM
EKVX NSCLC
  TGI: > 100 µM
SN12C renal
  TGI: > 100 µM
HCT-116 colon
  TGI: > 100 µM
M14 melanoma
  TGI: > 100 µM
MALME-3M melanoma
  TGI: > 100 µM
KM12 colon
  TGI: > 100 µM
UACC-62 melanoma
  TGI: > 100 µM
HOP-62 NSCLC
  TGI: > 100 µM
SK-MEL-5 melanoma
  TGI: > 100 µM
SK-MEL-2 melanoma
  TGI: > 100 µM
SF-268 CNS
  TGI: > 100 µM
A549 NSCLC
  TGI: > 100 µM
IGROV1 ovarian
  TGI: > 100 µM
SK-MEL-28 melanoma
  TGI: > 100 µM
HT29 colon
  TGI: > 100 µM
NCI-H460 lung
  TGI: > 100 µM
UACC-257 melanoma
  TGI: > 100 µM
BT-549 breast
  TGI: > 100 µM
A498 renal
  TGI: > 100 µM
T-47D breast
  TGI: > 100 µM
LOX IMVI melanoma
  TGI: > 100 µM
NCI-H23 lung
  TGI: > 100 µM
SR leukemia
  TGI: > 100 µM
ACHN renal
  TGI: > 100 µM
HL-60(TB) leukemia
  TGI: > 100 µM
U251 CNS
  TGI: > 100 µM
RXF 393 renal
  TGI: > 100 µM
NCI/ADR-RES ovarian
  TGI: > 100 µM
HCT-15 colon
  TGI: > 100 µM
CAKI-1 renal
  TGI: > 100 µM
NCI-H226 lung
  TGI: > 100 µM
PC-3 prostate
  TGI: > 100 µM
786-0 renal
  TGI: > 100 µM
NCI-H522 lung
  TGI: > 100 µM
SW-620 colon
  TGI: > 100 µM
K-562 leukemia
  TGI: > 100 µM
HS 578T breast
  TGI: > 100 µM
SNB-75 CNS
  TGI: > 100 µM
OVCAR-4 ovarian
  TGI: > 100 µM
MDA-N
  TGI: > 100 µM
SF-295 CNS
  TGI: > 100 µM
TK-10 renal
  TGI: > 100 µM
SK-OV-3 ovarian
  TGI: > 100 µM
HCC-2998 colon
  TGI: > 100 µM

## COC(=O)C1CC23C=CCN4CC(C2C)C2(c5ccccc5NC12)C43 (stereo not drawn)
SF-539 CNS
  TGI: > 100 µM
OVCAR-3 ovarian
  TGI: > 100 µM
SNB-19 CNS
  TGI: > 100 µM
RPMI-8226 leukemia
  TGI: > 100 µM
MDA-MB-435
  TGI: > 100 µM
OVCAR-8 ovarian
  TGI: > 100 µM
CCRF-CEM leukemia
  TGI: > 100 µM
MOLT-4 leukemia
  TGI: > 100 µM
MDA-MB-231 breast
  TGI: > 100 µM
HOP-92 NSCLC
  TGI: > 100 µM
MCF7 breast
  TGI: > 100 µM
DU-145 prostate
  TGI: > 100 µM
OVCAR-5 ovarian
  TGI: > 100 µM
COLO 205 colon
  TGI: > 100 µM
EKVX NSCLC
  TGI: > 100 µM
SN12C renal
  TGI: > 100 µM
HCT-116 colon
  TGI: > 100 µM
M14 melanoma
  TGI: > 100 µM
MALME-3M melanoma
  TGI: > 100 µM
KM12 colon
  TGI: > 100 µM
UACC-62 melanoma
  TGI: > 100 µM
HOP-62 NSCLC
  TGI: > 100 µM
SK-MEL-5 melanoma
  TGI: > 100 µM
SK-MEL-2 melanoma
  TGI: > 100 µM
SF-268 CNS
  TGI: > 100 µM
A549 NSCLC
  TGI: > 100 µM
IGROV1 ovarian
  TGI: > 100 µM
SK-MEL-28 melanoma
  TGI: > 100 µM
HT29 colon
  TGI: > 100 µM
NCI-H460 lung
  TGI: > 100 µM
UACC-257 melanoma
  TGI: > 100 µM
BT-549 breast
  TGI: > 100 µM
A498 renal
  TGI: > 100 µM
T-47D breast
  TGI: > 100 µM
LOX IMVI melanoma
  TGI: > 100 µM
NCI-H23 lung
  TGI: > 100 µM
SR leukemia
  TGI: > 100 µM
ACHN renal
  TGI: > 100 µM
HL-60(TB) leukemia
  TGI: > 100 µM
U251 CNS
  TGI: > 100 µM
RXF 393 renal
  TGI: > 100 µM
NCI/ADR-RES ovarian
  TGI: > 100 µM
HCT-15 colon
  TGI: > 100 µM
CAKI-1 renal
  TGI: > 100 µM
NCI-H226 lung
  TGI: > 100 µM
PC-3 prostate
  TGI: > 100 µM
786-0 renal
  TGI: > 100 µM
NCI-H522 lung
  TGI: > 100 µM
SW-620 colon
  TGI: > 100 µM
K-562 leukemia
  TGI: > 100 µM
HS 578T breast
  TGI: > 100 µM
SNB-75 CNS
  TGI: > 100 µM
OVCAR-4 ovarian
  TGI: > 100 µM
MDA-N
  TGI: > 100 µM
SF-295 CNS
  TGI: > 100 µM
TK-10 renal
  TGI: > 100 µM
SK-OV-3 ovarian
  TGI: > 100 µM
HCC-2998 colon
  TGI: > 100 µM

— PubChem BioAssay (NCI)
